Experimental data as given in US20080261994A1, “CYCLOPROPANE COMPOUNDS AND PHARMACEUTICAL USE THEREOF” (Japan Tobacco Inc., priority 2003, published 2008).
Where two headings read alike, the source gives them in different places.

Experiments:
Assay type in all cases: biochemical
aggrecanase-1 = molecular target: T1, aggrecanase-1 (Homo sapiens, UniProt O75173); assay: Aggrecanase-1 inhibitory action (Particle Assay, GAG release from aggrecan-containing polyacrylamide particles)
T1 sequence (O75173 213-837): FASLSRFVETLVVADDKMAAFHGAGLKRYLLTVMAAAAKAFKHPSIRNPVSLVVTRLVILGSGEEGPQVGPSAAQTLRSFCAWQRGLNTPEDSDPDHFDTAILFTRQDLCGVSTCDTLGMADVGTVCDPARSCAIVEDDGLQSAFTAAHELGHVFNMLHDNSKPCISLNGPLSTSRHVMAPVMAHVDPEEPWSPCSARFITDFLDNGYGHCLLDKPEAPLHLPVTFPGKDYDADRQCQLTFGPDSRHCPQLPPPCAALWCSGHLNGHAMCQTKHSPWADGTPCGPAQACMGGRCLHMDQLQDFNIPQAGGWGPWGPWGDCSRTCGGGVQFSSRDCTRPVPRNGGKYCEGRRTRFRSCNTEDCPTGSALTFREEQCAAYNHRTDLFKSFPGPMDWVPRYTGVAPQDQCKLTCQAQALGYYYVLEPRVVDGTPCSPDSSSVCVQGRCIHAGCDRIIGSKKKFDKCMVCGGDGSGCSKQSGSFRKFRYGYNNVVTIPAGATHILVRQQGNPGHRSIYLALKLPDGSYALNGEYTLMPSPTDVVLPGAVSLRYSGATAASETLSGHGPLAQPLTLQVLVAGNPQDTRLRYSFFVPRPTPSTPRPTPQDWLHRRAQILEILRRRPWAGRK
Procedure: Particle Assay was used for determination of aggrecanase activity.
(§1) The enzyme and substrate were diluted with Tris-HCl buffer, and test compounds were diluted with dimethyl sulfoxide (DMSO).
Test compounds and the enzyme were added into 96-well plate, and polyacrylamide particles containing aggrecan were added as a substrate and the mixture was incubated at 37° C. for 15 hr.
After incubation, the supernatant was transferred to another plate, and mixed with 1,9-dimethylmethylene blue. The absorbence at 595 nm was measured to quantify the amount of glycosaminoglycan (GAG) released in the reaction supernatant. Whale chondroitin sulfate was used as the standard of GAG. The inhibitory activity of the compound in each well (%) was calculated based on the values of enzyme-free well and inhibitor-free well. The inhibitory activity of the compound was represented as […] (μM).

MMP-1 = molecular target: T2, MMP-1 (Homo sapiens, UniProt P03956); assay: MMP-1 inhibitory action (Type I collagen Activity Measurement kit, FITC-labeled collagen type I)
T2 sequence (P03956 100-469): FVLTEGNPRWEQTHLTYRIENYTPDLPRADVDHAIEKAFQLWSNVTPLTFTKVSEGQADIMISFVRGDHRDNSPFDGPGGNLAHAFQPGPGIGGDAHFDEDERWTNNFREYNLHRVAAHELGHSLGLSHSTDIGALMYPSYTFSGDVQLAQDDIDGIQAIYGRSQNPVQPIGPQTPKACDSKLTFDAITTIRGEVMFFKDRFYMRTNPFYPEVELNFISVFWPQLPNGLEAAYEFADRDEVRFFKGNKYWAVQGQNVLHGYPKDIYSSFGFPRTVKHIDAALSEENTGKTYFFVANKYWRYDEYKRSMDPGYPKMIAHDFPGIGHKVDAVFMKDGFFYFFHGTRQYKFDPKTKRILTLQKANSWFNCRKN
Procedure: For MMP-1 Assay, Type I collagen Activity Measurement kit (YAGAI YU-72013) modified to a 96-well plate format was used.
The principle of the kit is based on the property of collagen that becomes soluble in ethanol after being cleaved by MMP-1.
as §1
The enzyme and test compounds were added into 96-well plate, and fluorescein isothiocianate (FITC)-labeled collagen type I was added as a substrate and the mixture was incubated at 37° C. for 3 hr.
The reaction was terminated by addition of Tris-HCl buffer containing ethanol. After centrifugation, the supernatant containing denatured substrate was transferred to another 96-well plate. The collagenase activity of MMP-1 was determined by measuring FITC fluorescence intensity (excitation wavelength 485 nm, emission wavelength 530 nm) of each well. The inhibitory activity of the compound in each well (%) was calculated based on the values of enzyme-free well and inhibitor-free well. The inhibitory activity of the compound was represented as IC50 (μM).

Recombinant Human MMP-13 = molecular target: T3, Recombinant Human MMP-13 (Homo sapiens, UniProt P45452); assay: MMP-13 inhibitory activity (MMP-13 specific fluorescent substrate with quencher)
T3 construct: purchased R&D systems 511-MM
Procedure: Inhibitory activity of tested compounds on MMP-13 was measured using MMP-13 specific fluorescent substrate with quencher.
as §1
Test compounds and the enzyme (Recombinant Human MMP-13: R&D systems, 511-MM) were added into 96-well plate. The reaction was initiated by adding synthetic substrate (7-MCA-Pro-CHA-Gly-NVal-His-Ala-DPA: enzyme systems products, Met-06) into the plate. After incubation at 25° C. for 1 h, the reaction was terminated by addition of reaction terminating solution containing acetic acid. Fluorescence intensity of each well was measured (Ex: 325 nm, […] 405 nm) and the MMP-13 inhibitory activity of the compound in each well (%) was calculated based on the values of enzyme-free well and inhibitor-free well. The inhibitory activity of the compound was represented as IC50 (μM).

[1] = aggrecanase-1 inhibitory action, read-out: IC50 AG1 (Experimental Example 1)
[2] = MMP-1 inhibitory action, FITC-labeled collagen type I, 37° C. for 3 hr, read-out: IC50 MMP1 (Experimental Example 2)
[3] = Recombinant Human MMP-13, fluorescent substrate, 25° C. for 1 h, read-out: IC50 MMP13 (Experimental Example 3)
[4] = Experimental Example 1, read-out: IC50 AG1
[5] = Experimental Example 2, read-out: IC50 MMP1
[6] = Experimental Example 3, read-out: IC50 MMP13

SMILES | IC50 (aggrecanase-1; [1]) | IC50 (MMP-1; [2]) | IC50 (Recombinant Human MMP-13; [3]) | IC50 (aggrecanase-1; [4]) | IC50 (MMP-1; [5]) | IC50 (Recombinant Human MMP-13; [6])
O=C(O)[C@]1(NS(=O)(=O)c2ccc(-c3cc(C(F)(F)F)on3)s2)[C@H](CO)[C@@H]1c1ccccc1 (relative stereo) [Example 2-10, (1R*,2R*,3R*)-2-hydroxymethyl-3-phenyl-1-[5-(5-trifluoromethyl-isoxazol-3-yl)-thiophene-2-sulfonylamino]-cyclopropanecarboxylic acid] | < 100 nM | < 1000 nM | < 100 nM | – | – | –
O=C(NO)[C@]1(NS(=O)(=O)c2ccc(OCc3ccc(Cl)cc3Cl)cc2)[C@@H]2c3ccccc3C[C@@H]21 (relative stereo) [Example 2-13, (1R*,1aS*,6aS*)-1-[4-(2,4-dichloro-benzyloxy)-benzenesulfonylamino]-1,1a,6,6a-tetrahydro-cyclopropa[a]inden-1-carboxylic acid hydroxyamide] | < 100 nM | ≥ 10000 nM | < 100 nM | – | – | –
O=C(NO)C1(NS(=O)(=O)c2ccc(OCc3ccc(Cl)cc3Cl)cc2)CC1c1ccccc1 (stereo not drawn) [Example 1-2, 1-[4-(2,4-Dichlorobenzyloxy)benzenesulfonylamino]-2-phenylcyclopropanecarboxylic acid hydroxyamide] | < 100 nM | ≥ 1000 nM | < 100 nM | – | – | –
O=C(O)C1(NS(=O)(=O)N2CCN(c3cccc(C(F)(F)F)c3)CC2)CC1c1ccccc1 (stereo not drawn) [Example 2-28] | ≥ 1000 nM | – | ≥ 10000 nM | – | – | –
O=C(O)C1(NS(=O)(=O)N2CCN(c3ccc(C(F)(F)F)cc3)CC2)CC1c1ccccc1 (stereo not drawn) [Example 2-29] | ≥ 1000 nM | – | < 100 nM | – | – | –
O=C(O)C1(NS(=O)(=O)N2CCN(c3ccc(Cl)c(C(F)(F)F)c3)CC2)CC1c1ccccc1 (stereo not drawn) [Example 2-30] | ≥ 1000 nM | – | ≥ 1000 nM | – | – | –
O=C(O)C1(NS(=O)(=O)N2CCN(c3cccc(Cl)c3)CC2)CC1c1ccccc1 (stereo not drawn) [Example 2-31] | ≥ 1000 nM | – | ≥ 1000 nM | – | – | –
COc1ccc(-c2ccc(S(=O)(=O)N[C@@]3(C(=O)O)C[C@@H]3c3ccccc3)s2)nn1 [Example 2-33] | ≥ 1000 nM | – | < 1000 nM | – | – | –
N#Cc1ccc(-c2ccc(S(=O)(=O)N[C@@]3(C(=O)O)C[C@@H]3c3ccccc3)s2)s1 [Example 2-34] | ≥ 1000 nM | – | < 1000 nM | – | – | –
O=C(O)C1(NS(=O)(=O)c2ccc(-c3ccc(Cl)cc3)s2)CC1Cc1ccccc1 (stereo not drawn) [Example 2-38] | ≥ 1000 nM | – | < 1000 nM | – | – | –
O=C(O)[C@]1(NS(=O)(=O)c2ccc(-c3ccc(C(F)F)s3)s2)C[C@@H]1c1ccccc1 [Example 2-102] | < 1000 nM | < 1000 nM | – | – | – | –
O=C(O)[C@]1(NS(=O)(=O)c2ccc(-c3nsc(CF)n3)s2)C[C@@H]1c1ccccc1 [Example 2-115] | ≥ 1000 nM | – | < 1000 nM | – | – | –
O=C(O)[C@]1(NS(=O)(=O)c2ccc(-c3csc4ccccc34)s2)C[C@@H]1c1ccccc1 [Example 2-118] | ≥ 1000 nM | ≥ 1000 nM | – | – | – | –
O=C(O)[C@]1(NS(=O)(=O)c2ccc(-c3cc4ccccc4o3)s2)C[C@@H]1c1ccccc1 [Example 2-122] | ≥ 1000 nM | < 1000 nM | – | – | – | –

The next lines start with the values.

IC50 (aggrecanase-1; [1]) | IC50 (MMP-1; [2]) | IC50 (Recombinant Human MMP-13; [3]) | IC50 (aggrecanase-1; [4]) | IC50 (MMP-1; [5]) | IC50 (Recombinant Human MMP-13; [6]) | SMILES
≥ 10000 nM | ≥ 10000 nM | – | – | – | – | O=C(O)C1(NS(=O)(=O)N2CCc3nc(-c4ccccc4)ncc3C2)CC1c1ccccc1 (stereo not drawn) [Example 2-127]
≥ 1000 nM | – | < 100 nM | – | – | – | O=C(O)[C@]1(NS(=O)(=O)c2ccc(-c3cc4ccccn4c3)s2)C[C@@H]1c1ccccc1 [Example 2-135]
< 1000 nM | ≥ 10000 nM | – | – | – | – | O=C(O)C1(NS(=O)(=O)c2ccc(-c3ccc(Cl)cc3)s2)CC1c1ccccc1Br (stereo not drawn) [Example 2-167]
≥ 1000 nM | ≥ 10000 nM | – | – | – | – | O=C1Nc2ccccc2C2CC12NS(=O)(=O)c1ccc(-c2ccc(Cl)cc2)s1 (stereo not drawn) [Example 2-218]
– | – | – | ≥ 1000 nM | ≥ 10000 nM | – | CC(=O)Nc1ccc(-c2ccc(S(=O)(=O)N[C@@]3(C(=O)O)C[C@]3(C)c3ccccc3)s2)cc1 [Example 2-402]
– | – | – | ≥ 1000 nM | ≥ 10000 nM | – | O=C1NCc2ccccc2C2CC12NS(=O)(=O)c1ccc(-c2ccc(Cl)cc2)s1 (stereo not drawn) [Example 2-415]
– | – | – | < 1000 nM | ≥ 1000 nM | – | Cc1cnc(-c2ccc(S(=O)(=O)N[C@@]3(C(=O)O)C(C)[C@@H]3c3ccccc3)s2)o1 (stereo partly drawn) [Example 2-417]
– | – | – | ≥ 1000 nM | ≥ 1000 nM | – | Cc1cnc(-c2ccc(S(=O)(=O)N[C@@]3(C(=O)O)C[C@]3(C)c3ccccc3)s2)o1 [Example 2-418]
– | – | – | ≥ 1000 nM | – | ≥ 1000 nM | C[C@]1(c2ccccc2)C[C@@]1(NS(=O)(=O)c1ccc(N2CCC(F)(F)CC2)s1)C(=O)O [Example 2-455]
– | – | – | ≥ 1000 nM | – | ≥ 1000 nM | CC1[C@H](c2ccccc2)[C@]1(NS(=O)(=O)c1ccc(-c2cnc3ccccc3n2)s1)C(=O)O (stereo partly drawn) [Example 2-456]
– | – | – | < 1000 nM | ≥ 1000 nM | – | CC1[C@H](c2ccccc2)[C@]1(NS(=O)(=O)c1ccc(-c2ccc3[nH]c(=O)sc3c2)s1)C(=O)O (stereo partly drawn) [Example 2-468]
– | – | – | ≥ 1000 nM | ≥ 10000 nM | – | Cc1nc2cc(-c3ccc(S(=O)(=O)N[C@@]4(C(=O)O)C(C)[C@@H]4c4ccccc4)s3)ccc2s1 (stereo partly drawn) [Example 2-469]
– | – | – | ≥ 1000 nM | – | ≥ 1000 nM | C[C@]1(c2ccccc2)C[C@@]1(NS(=O)(=O)c1ccc(-c2ccc(N)cc2)s1)C(=O)O [Example 2-583]
– | – | – | ≥ 1000 nM | – | ≥ 1000 nM | C[C@]1(c2ccccc2)C[C@@]1(NS(=O)(=O)c1csc2ccc(-c3ccccc3)cc12)C(=O)O [Example 2-585]
– | – | – | ≥ 1000 nM | – | ≥ 10000 nM | Cn1nncc1-c1ccc(S(=O)(=O)N[C@@]2(C(=O)O)C[C@]2(C)c2ccccc2)s1 [Example 2-586]
– | – | – | < 1000 nM | ≥ 1000 nM | – | CC1[C@H](c2ccccc2)[C@]1(NS(=O)(=O)c1ccc(-c2nc3cc(Cl)ccc3[nH]2)s1)C(=O)O (stereo partly drawn) [Example 2-604]
